Article PMC2903893 (Journal of the American Chemical Society, 2009)
Read-outs that look alike come from different tables or passages of the source. One block for each molecule: values may come before it.

Key:
[1] = test system: PKC; conditions: read-out: PKC IC50, cited from earlier work
[2] = test system: PKA; conditions: read-out: PKA IC50; cited from earlier work
[3] = test system: PPK; conditions: read-out: PPK IC50; cited from earlier work
[4] = molecular target: protein kinase C (PKC); assay type: biochemical; conditions: read-out: PKC IC50; whole enzyme with regulatory and catalytic domains
[5] = test system: JHU-012 Head&Neck; assay: Cancer cell growth inhibition with and without light, JHU-012; assay type: cell-based; conditions: JHU-012, with vs without light exposure
[6] = test system: nine cancer cell lines; assay: cells; assay type: cell-based
[7] = assay type: physicochemical; conditions: 65 °C
[8] = Absorption of the perylenequinone chromophore; assay type: physicochemical
[9] = cited from earlier work
[10] = test system: PKCβI; conditions: read-out: PKCβI IC50; ref 29 (ruboxistaurin), 30 (enzastaurin); cited from earlier work
[11] = test system: PKCβII; conditions: read-out: PKCβII IC50; ref 29 (ruboxistaurin), 30 (enzastaurin); cited from earlier work

Molecule: COc1c(O)c2c(=O)cc(OC)c3c4c(OC)cc(=O)c5c(O)c(OC)c(CC(C)O)c(c(c1CC(C)O)c23)c54 (single isomer, unassigned; (-)) [(−)-1, Calphostin D]
IC50 ([1]; Table 3 footnote a, ref [23]): 6400 nM

Molecule: COc1c(O)c2c(=O)cc(OC)c3c4c(OC)cc(=O)c5c(O)c(OC)c(CC(C)OC(=O)c6ccccc6)c(c(c1CC(C)OC(=O)c1ccccc1)c23)c54 (stereo not shown) [1a, calphostin A]
IC50 ([1]; ref 22b): 250 nM

Molecule: COc1c(C[C@@H](C)OC(=O)Oc2ccc(O)cc2)c2c3c(C[C@@H](C)OC(=O)c4ccccc4)c(OC)c(=O)c4c(O)cc(OC)c(c5c(OC)cc(O)c(c1=O)c52)c43 [1c, Calphostin C, reference compound]
IC50 [1]: 50 to 460 nM | IC50 [2]: > 100000 nM | IC50 [3]: > 100000 nM

Molecule: COc1c(CC(C)O)c2c3c(CC(C)O)c(OC)c(=O)c4c(O)cc5c(c6c(cc(O)c(c1=O)c62)OCO5)c43 (stereo not shown) [compound 3, Cercosporin]
IC50 [4]: 600 nM | photopotentiation [5]: 4.9 fold | CC50 ([6]; read-out: CC50 across the series of cell lines): 120 to 270 nM | ΔG^‡ atropisomerization ([7]; DMSO): 28.2 kcal/mol | ΔG^‡ atropisomerization ([7]; benzene): 27.4 (benzene) kcal/mol | ΔG^‡ atropisomerization ([7]; benzene, listed as cercosporin): 27.4 kcal/mol | ε^670 [8]: 160 M⁻¹ cm⁻¹ | IC50 [1]: 600 to 1300 nM | IC50 [2]: > 500000 nM | IC50 [3]: > 180000 nM | atropisomerization t1/2 ([9]; 60 °C, DMSO): 48 h | ΔG^‡ atropisomerization ([9]; acetylacetone): 27.0[5] (acetylacetone) kcal/mol

Molecule: COc1c2c3c4c(c(OC)c(=O)c5c(O)cc(OC)c(c6c(OC)cc(O)c(c1=O)c63)c54)[C@@H](C(C)=O)[C@@](C)(O)C2 [compound 4, Hypocrellin A]
IC50 [4]: 4500 nM | growth inhibition, hypocrellin A (4) compared with hypocrellin (ent-4) [6]: nearly identical activity

Molecule: Cn1cc(C2=C(c3cn(C4CCN(Cc5ccccn5)CC4)c4ccccc34)C(=O)NC2=O)c2ccccc21 [enzastaurin]
IC50 [10]: 30 nM | IC50 [11]: 30 nM

Molecule: CN(C)C[C@@H]1CCn2cc(c3ccccc32)C2=C(C(=O)NC2=O)c2cn(c3ccccc23)CCO1 [ruboxistaurin]
IC50 [10]: 4.7 nM | IC50 [11]: […]

IC50 [4]: 400 nM
Molecule: Hypocrellin [ent-4]
